Results published in PMC4446597, “Novel Adociaquinone Derivatives from the Indonesian Sponge Xestospongia sp” (Marine Drugs, 2015).
Where a name gives a salt, the structure may show the parent alone.

Tests used:
CDK1/cyclin B = assay: Protein kinase assay, CDK1/cyclin B; assay type: biochemical; conditions: 15 µM ATP, 30 °C, triplicates
Procedure: (§1) Evaluation of the protein kinase inhibitory activity was performed in vitro as previously described. Briefly, homogenization buffer: 60 mM β-glycerophosphate, 15 mM p-nitrophenylphosphate, 25 mM Mops (pH 7.2), 15 mM EGTA, 15 mM MgCl2, 1 mM dithiothreitol, 1 mM sodium vanadate, 1 mM NaF, 1 mM phenylphosphate, 10 µg leupeptin mL^−1, 10 µg aprotinin mL^−1, 10 µg soybean trypsin inhibitor mL^−1, and 100 µg benzamidine. Buffer A: 10 mM MgCl2, 1 mM EGTA, 1 mM dithiothreitol, 25 mM Tris-HCl pH 7.5, 50 µg heparin mL^−1. Buffer C: homogenization buffer but 5 mM EGTA, no NaF and no protease inhibitors. Kinase activities were assayed in triplicates in buffer A or C at 30 °C, at a final ATP concentration of 15 µM. The order of mixing the reagents was: buffers, substrate, enzyme, inhibitor and ^33P-radiolabelled ATP. Isolated compounds were tested against a panel of eight kinases; namely cyclin-dependent kinase 1 (CDK1/cyclin B), cyclin-dependent kinase 2 (CDK2/cyclin A), cyclin-dependent kinase 5 (CDK5/p25), cyclin-dependent kinase 9 (CDK9/cyclin T), casein kinase 1 (CK1), Cdc2-like kinase 1 (CLK1), dual-specificity tyrosine-(Y)-phosphorylation regulated kinase 1A (DYRK1A) and glycogen synthase kinase-3α/β (GSK-3α/β).

CDK2/cyclin A = CDK2/cyclin A (Homo sapiens, UniProt P24941); assay: Protein kinase assay, CDK2/cyclin A; assay type: biochemical; conditions: 15 µM ATP, 30 °C, triplicates
Procedure: as §1

CDK5/p25 = CDK5/p25 (Homo sapiens, UniProt Q00535); assay: Protein kinase assay, CDK5/p25; assay type: biochemical; conditions: 15 µM ATP, 30 °C, triplicates
CDK5/p25, sequence (Q00535 whole entry, species assumed): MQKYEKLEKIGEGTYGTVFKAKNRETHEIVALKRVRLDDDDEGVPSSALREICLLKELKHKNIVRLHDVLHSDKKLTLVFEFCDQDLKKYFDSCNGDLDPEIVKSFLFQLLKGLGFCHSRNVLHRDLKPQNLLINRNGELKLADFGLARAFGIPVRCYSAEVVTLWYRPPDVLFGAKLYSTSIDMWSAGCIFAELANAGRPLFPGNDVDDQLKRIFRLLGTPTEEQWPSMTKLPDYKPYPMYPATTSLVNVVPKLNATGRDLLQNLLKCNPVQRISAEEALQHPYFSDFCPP
CDK5/p25, sequence (Q15078 99-307 partner limits assumed, species assumed): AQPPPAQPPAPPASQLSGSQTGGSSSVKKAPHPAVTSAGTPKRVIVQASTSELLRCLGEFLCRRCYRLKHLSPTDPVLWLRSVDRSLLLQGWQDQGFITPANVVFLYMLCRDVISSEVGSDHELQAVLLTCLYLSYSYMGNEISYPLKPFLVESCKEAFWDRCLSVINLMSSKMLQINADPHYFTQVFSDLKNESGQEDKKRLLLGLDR
Procedure: as §1

CDK9/cyclin T = CDK9/cyclin T (Homo sapiens, UniProt P50750); assay: Protein kinase assay, CDK9/cyclin T; assay type: biochemical; conditions: 15 µM ATP, 30 °C, triplicates
CDK9/cyclin T, sequence (P50750 whole entry, species assumed): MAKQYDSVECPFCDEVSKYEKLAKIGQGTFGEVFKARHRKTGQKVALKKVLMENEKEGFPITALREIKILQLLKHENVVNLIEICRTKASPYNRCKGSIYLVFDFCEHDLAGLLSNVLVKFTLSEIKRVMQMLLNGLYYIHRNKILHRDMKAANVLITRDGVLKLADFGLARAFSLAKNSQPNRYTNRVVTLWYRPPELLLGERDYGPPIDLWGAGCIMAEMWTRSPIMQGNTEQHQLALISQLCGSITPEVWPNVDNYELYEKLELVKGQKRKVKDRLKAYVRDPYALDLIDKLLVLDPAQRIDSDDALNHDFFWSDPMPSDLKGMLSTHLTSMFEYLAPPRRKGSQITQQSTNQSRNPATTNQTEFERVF
CDK9/cyclin T, sequence (O60563 whole entry partner, species assumed): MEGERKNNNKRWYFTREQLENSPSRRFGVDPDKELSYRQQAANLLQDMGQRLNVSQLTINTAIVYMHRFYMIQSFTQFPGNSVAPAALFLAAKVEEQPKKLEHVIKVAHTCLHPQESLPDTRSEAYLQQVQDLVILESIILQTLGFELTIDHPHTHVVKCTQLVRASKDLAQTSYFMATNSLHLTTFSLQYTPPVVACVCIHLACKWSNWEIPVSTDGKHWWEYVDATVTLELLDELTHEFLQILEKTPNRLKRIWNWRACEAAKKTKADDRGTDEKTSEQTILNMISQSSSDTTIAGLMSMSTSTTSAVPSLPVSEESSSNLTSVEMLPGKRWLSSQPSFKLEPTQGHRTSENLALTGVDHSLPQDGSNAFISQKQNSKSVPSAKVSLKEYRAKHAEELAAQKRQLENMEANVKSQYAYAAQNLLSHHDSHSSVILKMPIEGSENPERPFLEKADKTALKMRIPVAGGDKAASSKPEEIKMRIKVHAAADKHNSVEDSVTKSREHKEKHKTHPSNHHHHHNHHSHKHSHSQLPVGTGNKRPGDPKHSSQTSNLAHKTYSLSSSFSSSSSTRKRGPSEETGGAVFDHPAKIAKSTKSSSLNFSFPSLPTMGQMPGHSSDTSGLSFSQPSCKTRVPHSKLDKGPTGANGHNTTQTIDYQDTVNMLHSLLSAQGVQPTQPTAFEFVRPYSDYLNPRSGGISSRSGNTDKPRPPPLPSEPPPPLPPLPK
Procedure: as §1

casein kinase 1 (CK1) = assay: Protein kinase assay, casein kinase 1; assay type: biochemical; conditions: 15 µM ATP, 30 °C, triplicates
Procedure: as §1

[1] = biological target: glycogen synthase kinase-3α/β (GSK-3α/β); assay: Protein kinase assay, GSK-3α/β; assay type: biochemical; conditions: 15 µM ATP, 30 °C, triplicates, read-out: GSK3 IC50
Procedure: as §1

topoisomerase II = tested on: topoisomerase II; design: method as in PMID 7473578; conditions: catalytic DNA unwinding and decatenation assays, KSDS assay; cited from earlier work
[2] = tested on: Staphylococcus aureus ATCC 6538; assay: Antibacterial assay, growth inhibition in liquid culture; assay type: cell-based; conditions: ATCC6538, S. aureus ATCC 6538, OD 620 nm after 16 to 18 h, read-out: antibacterial activity IC50 against Staphylococcus aureus
Procedure: The antibacterial activity assay was conducted on the bacterial strain Gram-positive Staphylococcus aureus ATCC 6538 and Gram-negative Escherichia coli ATCC 8739 evaluated in vitro by determining the IC50. A pre-culture of 5 mL LB (Luria Bertoni) medium was prepared by inoculating a colony of the bacterial strain and was incubated at 37 °C with stirring overnight. The concentration of the pre-culture was assessed by measuring the optical density OD at 620 nm and adjusted by dilution to obtain a suspension of 0.03 OD. The […] was determined by a liquid test in 96-well-plates. A quantity of 200 µL of the bacterial suspension was distributed in each well and 10 µL of the extracts, fractions or pure compounds solutions in DMSO (10, 5 and 2 mg/mL, respectively) were added in triplicate. The 96 well-plates were incubated at 30 °C for 16 to 18 h with shaking (450 rpm). The optical density of the wells was measured at 620 nm and the results were interpreted by calculating the percentage of growth inhibition in each well using the formula: % inhibition = 100 − (DOS − DOB)/(DOT − DOB) ×100 where T = bacterial suspension without test sample, B = culture medium without bacteria and S = bacterial suspension test sample. Ampicillin and chloramphenicol were used as positive control against S. aureus and E. coli, respectively.

DYRK1A = DYRK1A (Rattus norvegicus, UniProt Q63470); assay: Protein kinase assay, DYRK1A; assay type: biochemical
Procedure: as §1

[3] = biological target: human farnesyltransferase; design: method as in PMID 20634081; conditions: read-out: IC50 against human farnesyltransferase; cited from earlier work
[4] = biological target: yeast farnesyltransferase; design: method as in PMID 20634081; conditions: read-out: IC50 against yeast farnesyltransferase; cited from earlier work

| Compound | IC50 (CDK1/cyclin B) [µM] | IC50 (CDK2/cyclin A) [µM] | IC50 (CDK5/p25) [µM] | IC50 (CDK9/cyclin T) [µM] | IC50 (casein kinase 1 (CK1)) [µM] | IC50 [1] [µM] | inhibition of topoisomerase II (in words) (topoisomerase II) | IC50 [2] [µM] | activity against DYRK1A (in words) (DYRK1A) | IC50 [3] [µM] | IC50 [4] [µM] |
| --- | --- | --- | --- | --- | --- | --- | --- | --- | --- | --- | --- |
| C[C@@]12CCCc3coc(c31)C(=O)c1cc3c(cc12)C(=O)C1=C(NCCS1(=O)=O)C3=O [Compound 6, adociaquinone B] | > 10 | > 10 | > 10 | 3 | > 10 | > 10 | inhibition of topoisomerase II |  |  |  |  |
| C[C@@]12CCCc3coc(c31)C(=O)c1cc3c(cc12)C(=O)C=C(NCCS(=O)(=O)O)C3=O [Compound 8, secoadociaquinone B] | > 10 | > 10 | 6 | > 10 | > 10 | > 10 |  |  |  |  |  |
| C[C@@]12CCCc3coc(c31)C(=O)c1cc3c(O)ccc(OS(=O)(=O)O)c3cc12 [Compound 11, xestoquinol sulfate] |  |  |  |  |  |  |  | 125 |  |  |  |
| C[C@@]12CCC(=O)c3coc(c31)C(=O)c1cc3c(O)ccc(OS(=O)(=O)O)c3cc12 [Compound 12] | 4.3 | 7.5 | 2.2 | 0.5 | 5.2 | 0.61 |  |  |  |  |  |
| CO[C@]12OC(O)C3=C1[C@@](C)(CCC3=O)c1cc3c(OS(=O)(=O)O)ccc(O)c3cc1C2=O (stereo partly drawn) [Compound 13] | > 10 | > 10 | > 10 | > 10 | > 10 | > 10 |  |  | marginal activity |  |  |
| CC1=CCCC2(C)C1=C(O)C(=O)c1cc3c(cc12)C(=O)C=CC3=O (stereo not drawn) [Orhalquinone] |  |  |  |  |  |  |  |  |  | 0.4 | 0.4 |
| adociaquinone A [Compound 5] |  |  |  |  |  |  | inhibition of topoisomerase II |  |  |  |  |
